Among the data in PubChem BioAssay (NCI) are TGI and GI50 values, retold here.

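In this assay, cells in 96-well plates receive the compound at five concentrations for 48 hours. Endpoints are linearly interpolated between the surrounding concentrations. Abbreviation: GI50, concentration required for 50% inhibition of growth. TGI marks complete inhibition of growth.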

Common to all, as to assay: NCI tumour cell line growth inhibition, 48 h
Test [1] relates to SNB-75 CNS.
The subject of test [2] is OVCAR-4 ovarian.
In test [3] the test system is SK-OV-3 ovarian.
For test [4], the system named is TK-10 renal.
The test system of test [5] is NCI-H522 lung.
Test [6] deals with OVCAR-5 ovarian.
The subject of test [7] is RXF 393 renal.
Test [8] relates to HCC-2998 colon.
The test system of test [9] is MCF7 breast.
The subject of test [10] is BT-549 breast.

As to `CC1=C(C(=O)Nc2ccc(C)cc2)C(c2cccc([N+](=O)[O-])c2)C(C(=O)Nc2ccc(C)cc2)=C(C)N1`, the TGI in test [1] was 81.4 µM; in test [2], over 100 µM; in test [3], over 100 µM; in test [4], over 100 µM; in test [5] it was 93.8 µM; in [6] it was over 100 µM. Besides, the TGI in test [7] is 63.2 µM; in test [8], over 100 µM.
For the molecule `Cc1ccccc1-n1c(CCl)nc2ccc(Br)cc2c1=O`, the TGI in [1] is 29 µM; in [2], 31.8 µM; in test [3], over 100 µM; in [4] it was 70.1 µM; in test [5], 5.83 µM; in test [6], 56.3 µM. The TGI came to 26.8 µM in test [7] and 30.8 µM in test [8].
On to `CCCCCCCCCCCCCCCCCC[S+](C)CC` (stereo unspecified), for which the GI50 is 1.65 µM in test [2]; 1.86 µM in test [9]; 1.86 µM in test [3]; 1.58 µM in [6]; 1.23 µM in [8]. In addition, the TGI came out at 4.35 µM in test [2]; 4.99 µM in [9]; 5.45 µM in test [3]; 4.25 µM in [6]; 2.68 µM in test [8].
In the case of `CC(=O)Nc1ccc(C2=N/C(=C\c3ccc(Cl)cc3)C(=O)O2)cc1`, the TGI in [1] is over 100 µM; in [2], over 100 µM; in test [3], over 100 µM; in [4], over 100 µM; in test [5], 63.7 µM; in test [6], over 100 µM. Further, the TGI in test [7] is over 100 µM; in test [8], 38.5 µM.
Take `COC(=O)C1=CC(=O)[C@@H]2CCCC[C@H]12`: the TGI in test [1], in [2], in test [3], in [4], in test [5] and in test [7] was over 100 µM throughout. This molecule yielded a TGI in test [8] of over 100 µM.
As for `O=C(CC1(O)C(=O)Nc2ccccc21)c1ccccc1O` (stereo unspecified), the TGI in test [1], in [2], in test [3], in test [4], in [5] and in test [6] was over 100 µM throughout. The TGI in test [7] is over 100 µM.
Take `Cc1c(C(=O)c2ccccc2)[n+](=O)c2cc(F)c(F)cc2n1[O-]`: the GI50 in [2] was 3.11 µM; in [9], 4.35 µM; in test [3] it was 3.7 µM; in test [4], 1.36 µM; in [5] it was 1.93 µM; in [10] it was 2.04 µM. In addition, the GI50 in test [6] was 18.7 µM. The TGI was over 100 µM in [2]; 21 µM in test [9]; 12.9 µM in [3]; 17.5 µM in test [4]; 3.88 µM in test [5]; 4.39 µM in [10]. This molecule showed a TGI in [6] of 33.8 µM.
On to `Clc1ccccc1C1SCc2nc3ccccc3n21` (stereo unspecified), for which the TGI in test [1] is 11.3 µM; in test [2], over 100 µM; in test [3], 82.7 µM; in test [4] it was 71.6 µM; in [5] it was 49.5 µM; in test [6] it was 79.4 µM. Further, the TGI in [7] stood at 60.5 µM.
In the case of `CCc1ccccc1NC(=O)C(=O)C1C(=O)N(c2ccccc2)N=C1N` (stereo unspecified), the TGI in [1], in [2], in test [4], in test [6], in [7] and in test [8] was over 100 µM throughout.
For `N#CCCN(c1ccc(C=O)cc1)S(=O)(=O)c1ccccc1`, the TGI in test [1], in test [2], in test [3], in [5], in [6] and in test [8] was over 100 µM each time.
For `N#Cc1cccc(C2C(=O)c3ccc(C(=O)c4ccc5c(c4)C(=O)N(c4ccc(Oc6ccc(N7C(=O)c8ccc(C(=O)c9ccc%10c(c9)C(=O)N(c9cccc(C#N)c9)C%10=O)cc8C7=O)cc6)cc4)C5=O)cc3C2=O)c1` (stereo unspecified), the TGI in [1], in test [2], in test [4], in test [5], in test [6] and in test [7] was over 100 µM in each case. The TGI in test [8] was over 100 µM.
As to `COc1cc2c(cc1-c1coc3cc(O)ccc3c1=O)OCO2`, the TGI turned out to be 46.1 µM in test [1]; 44.3 µM in test [2]; 90.9 µM in [9]; 37.3 µM in [3]; 43.9 µM in test [4]; 36.2 µM in [5]. In addition, the results for the TGI in test [10], in test [6] and in [8] were 41.2 µM, over 100 µM and over 100 µM, respectively.
Take `COc1cc(CC(=O)O)c([N+](=O)[O-])cc1OC`: the TGI in test [1], in test [2], in [3], in [4], in test [5] and in [6] was over 100 µM in each case. For the same molecule, the TGI in test [7] and in test [8] was over 100 µM each time.
As to `COCCn1c2c([n+](Cc3cnccn3)c1C)C(=O)c1ccccc1C2=O`, the GI50 in test [1] was 0.0313 µM; in [2], under 0.01 µM; in [3] it was 0.0588 µM; in test [4], 0.0352 µM; in test [5], under 0.01 µM; in test [10] it was 0.0264 µM. In addition, the figures for the GI50 in test [6], in [7] and in [8] were 0.0308 µM, 0.0156 µM and under 0.01 µM, respectively. The TGI in test [1] was 0.107 µM; in test [2], 0.012 µM; in test [3], 0.573 µM; in test [4], 0.222 µM; in test [5], under 0.01 µM; in test [10], 0.0876 µM. For the same molecule, the TGI in test [6] was 0.129 µM; in test [7], 0.128 µM; in test [8], 0.0373 µM.
On to `Cc1ccc(NC(=O)CC2SC(=Nc3ccc(Cl)cc3)NC2=O)cc1C` (stereo unspecified), for which the TGI was 33.2 µM in test [1]; 35.6 µM in test [2]; over 66.1 µM in test [3]; 31.1 µM in [4]; 18.4 µM in test [5]; 33.1 µM in test [6]. The TGI in [7] turned out to be 32 µM; in [8], 33.6 µM.
